Assay results as given in PubChem BioAssay AID2060493 (Molecular Pharmacology Branch, DTP, NCI, 2025).

Tested on: 616215-338-R-J1-PDC tumor spheroids, viability
Experiment: Anticancer human tumor 616215-338-R-J1-PDC patient-derived colon adenocarcinoma cell line growth inhibition [GQUAD]
Details: spheroids with HUVEC and MSC; for IC50: curve of first compound; for viability, T/C: stronger effect = lower value; active means viability on the fitted dose curve at most 10% of control; inactive means the rest
Excerpt: DNA G-quadruplex Stabilizer Agents in Combinations in Complex Spheroids
A high-throughput screen of multi-cell type tumor spheroids was designed to identify active combinations of DNA G-quadruplex stabilizer agents and targeted small molecules. Complex spheroids include a stromal component modeled by human endothelial cells (HUVEC) and fibroblasts modeled by human mesenchymal stem cells (MSCs). The concentration ranges selected for each drug and investigational agent were based upon clinically achievable concentrations if the clinical Cmax of the agent was known.
Compounds. The drugs and investigational agents: pidnarulex (CX-5461; NSC782164), APTO-253 (NSC789042), BRACO-19 (NSC847499), peposertib (NSC802822), ceralasertib (NSC780249), elimusertib (NSC800525), camonsertib (NSC841442), AZD-1390 (NSC803789), olaparib (NSC753686), talazoparib (NSC767125), ART-558 (NSC835418), sotorasib (NSC818433), MRTX-1133 (NSC836407), SN-38 (NSC673596), topotecan (NSC609699), etoposide (NSC141540), doxorubicin (NSC123127), gemcitabine (NSC613327), 5-fluorouracil (NSC19893), paclitaxel (NSC125973), vemurafenib (NSC761431), panobinostat (NSC761190), R-306465 (JNJ-16241199; NSC773264), adavosertib (NSC754352), TP-3654 (NSC805149), carboplatin (NSC241240), KSQ-4279 (NSC840948), and staurosporine (NSC755774) were obtained from the National Cancer Institute (NCI) Developmental Therapeutics Program Chemical Repository (34). The FDA-approved anticancer drug set is available from the NCI Developmental Therapeutics Program. […] The stock solutions were prepared in dimethyl sulfoxide (DMSO, Sigma-Aldrich, St. Louis, MO, cat. D2650) at 800-fold the tested concentration and stored at -70 degrees C prior to their use. All drugs and investigational agents were tested over a range starting from a high concentration at or near the clinical Cmax and decreasing in half-log increments. If the clinical Cmax for an agent had not been determined, the highest concentration tested was 10 microM.
2.3 Cell Culture. All cells were maintained in an incubator at 37 degrees C and 5% CO2 with 95% humidity. The PDC lines were cultured according to standard operating procedures established by the NCI PDMR. All PDCs were thawed and cultured in Matrigel-coated flasks prepared with a working solution of 1X Ham's F-12 nutrient mix, without supplementation (Invitrogen, cat. 11765054), 100 U/mL penicillin-streptomycin (Invitrogen, cat. 15140122), and 2.5% Matrigel (Corning Inc., cat. 354248) for the first three passages. The 857933-349-R-J2-PDC line was cultured in 6C/Colon 1B media, which includes advanced DMEM/F-12 (Thermo Fisher Scientific, cat. 12634028), 10 mM HEPES (Thermo Fisher Scientific, cat. 15630080), 1X GlutaMAX supplement (Thermo Fisher Scientific, cat. 35050061), 0.1 mg/mL primocin (InvivoGen, cat. ant-pm-2), 10% defined fetal bovine serum, heat inactivated (HyClone Laboratories Inc., cat. SH30070.03HI), 50% L-WRN conditioned media (ATCC, cat. CRL-3276), 1.25 mM N-Acetyl-L-cysteine (Sigma-Aldrich, cat. A9165), 10 mM nicotinamide (Sigma-Aldrich, cat. N0636), 1X B-27 supplement (Thermo Fisher Scientific, cat. 17504044), 1X N-2 supplement (Thermo Fisher Scientific, cat. 17502048), 10 microM Y-27632 dihydrochloride (Tocris Bioscience, cat. 1254), and 50 ng/mL human EGF recombinant protein (Thermo Fisher Scientific, cat. PHG0311). The 485176-168-R4-J1-PDC line was cultured in Panc media, which includes all 6C/Colon 1B media components plus 100 ng/mL human FGF-10 (Thermo Fisher Scientific, cat. 100-26), 500 nM SB-431542 (Selleckchem, cat. S1067), and gastrin (Tocris, cat. 3006).
[…]

[1] = second compound 0.0316 µM, first compound 0.0316 µM
[2] = second compound 0.0316 µM, first compound 0.1 µM
[3] = second compound 0.0316 µM, first compound 0.316 µM
[4] = second compound 0.0316 µM, first compound 1 µM
[5] = second compound 0.0316 µM, first compound 3.16 µM
[6] = second compound 0.0316 µM, first compound 10 µM
[7] = second compound 0.1 µM, first compound 0.0316 µM
[8] = second compound 0.1 µM, first compound 0.1 µM
[9] = second compound 0.1 µM, first compound 0.316 µM
[10] = second compound 0.1 µM, first compound 1 µM
[11] = second compound 0.1 µM, first compound 3.16 µM
[12] = second compound 0.1 µM, first compound 10 µM
[13] = second compound 0.316 µM, first compound 0.0316 µM
[14] = second compound 0.316 µM, first compound 0.1 µM
[15] = second compound 0.316 µM, first compound 0.316 µM
[16] = second compound 0.316 µM, first compound 1 µM
[17] = second compound 0.316 µM, first compound 3.16 µM
[18] = second compound 0.316 µM, first compound 10 µM
[19] = second compound 1 µM, first compound 0.0316 µM
[20] = second compound 1 µM, first compound 0.1 µM
[21] = second compound 1 µM, first compound 0.316 µM
[22] = second compound 1 µM, first compound 1 µM
[23] = second compound 1 µM, first compound 3.16 µM
[24] = second compound 1 µM, first compound 10 µM
[25] = second compound 3.16 µM, first compound 0.0316 µM
[26] = second compound 3.16 µM, first compound 0.1 µM
[27] = second compound 3.16 µM, first compound 0.316 µM
[28] = second compound 3.16 µM, first compound 1 µM
[29] = second compound 3.16 µM, first compound 3.16 µM
[30] = second compound 3.16 µM, first compound 10 µM
[31] = second compound 10 µM, first compound 0.0316 µM
[32] = second compound 10 µM, first compound 0.1 µM
[33] = second compound 10 µM, first compound 0.316 µM
[34] = second compound 10 µM, first compound 1 µM
[35] = second compound 10 µM, first compound 3.16 µM
[36] = second compound 10 µM, first compound 10 µM
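Further: spheroids exposed to agents for 7 days before readout.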
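Wherever viability, T/C is given: percent viability relative to DMSO vehicle control wells taken as 100%.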

CCCS(=O)(=O)Nc1ccc(F)c(C(=O)c2c[nH]c3ncc(-c4ccc(Cl)cc4)cc23)c1F + Cc1[nH]c2ccc(F)cc2c1-c1nc2c3cccnc3c3ncccc3c2[nH]1
inactive: viability, T/C [1] 105% | viability, T/C [2] 96.7% | viability, T/C [3] 93.8% | viability, T/C [4] 99.1% | viability, T/C [5] 94.9% | viability, T/C [7] 93.6% | viability, T/C [8] 107% | viability, T/C [9] 102% | viability, T/C [10] 102% | viability, T/C [11] 87.6% | viability, T/C [13] 104% | viability, T/C [14] 98.7% | viability, T/C [15] 99% | viability, T/C [16] 98% | viability, T/C [17] 96.5% | viability, T/C [19] 109% | viability, T/C [20] 106% | viability, T/C [21] 89% | viability, T/C [22] 96.3% | viability, T/C [23] 91.5% | viability, T/C [25] 96.7% | viability, T/C [26] 91.4% | viability, T/C [27] 101% | viability, T/C [28] 95.2% | viability, T/C [29] 86.6% | viability, T/C [31] 101% | viability, T/C [32] 92.3% | viability, T/C [33] 101% | viability, T/C [34] 93.5% | viability, T/C [35] 76.8%
active: viability, T/C [6] 2.78% | viability, T/C [12] 3.08% | viability, T/C [18] 3.41% | viability, T/C [24] 2.83% | viability, T/C [30] 1.44% | viability, T/C [36] 1.37%
5.42 µM: IC50 (second compound 1 µM)
5.28 µM: IC50 (second compound 0.1 µM)
5.62 µM: IC50 (second compound 0.316 µM)
5.54 µM: IC50 (second compound 0.0316 µM)
4.76 µM: IC50 (second compound 10 µM)
5.19 µM: IC50 (second compound 3.16 µM)

O=C(NO)c1cnc(N2CCN(S(=O)(=O)c3ccc4ccccc4c3)CC2)nc1 + Cc1cnc(CNC(=O)c2c(=O)c3ccc(N4CCCN(C)CC4)nc3n3c2sc2ccccc23)cn1
inactive: viability, T/C [1] 101% | viability, T/C [2] 96.1% | viability, T/C [3] 79.9% | viability, T/C [7] 54.1% | viability, T/C [8] 66.6% | viability, T/C [9] 29.4% | viability, T/C [13] 37.2% | viability, T/C [14] 41.2% | viability, T/C [15] 28.5% | viability, T/C [19] 24.7% | viability, T/C [20] 24.8% | viability, T/C [21] 35.1% | viability, T/C [22] 0.04% | viability, T/C [25] 21.9% | viability, T/C [26] 34.8% | viability, T/C [31] 12.2%
0.501 µM: IC50 (second compound 0.0316 µM)
0.147 µM: IC50 (second compound 0.1 µM)
< 0.0316 µM: IC50 (second compound 0.316 µM) | IC50 (second compound 1 µM) | IC50 (second compound 3.16 µM) | IC50 (second compound 10 µM)
active: viability, T/C [4] 5.15% | viability, T/C [5] 0.03% | viability, T/C [6] 0.07% | viability, T/C [10] 0.37% | viability, T/C [11] 0.03% | viability, T/C [12] 0.07% | viability, T/C [16] 0.06% | viability, T/C [17] 0.02% | viability, T/C [18] 0.06% | viability, T/C [23] 0.03% | viability, T/C [24] 0.08% | viability, T/C [27] 0.18% | viability, T/C [28] 0.07% | viability, T/C [29] 0.07% | viability, T/C [30] 0.09% | viability, T/C [32] 16% | viability, T/C [33] 0.15% | viability, T/C [34] 0.14% | viability, T/C [35] 0.16% | viability, T/C [36] 0.17%
